Key:
[1] = tested on: peptide-pulsed C1R-A11; experiment: In vitro CTL induction, IFN-gamma ELISPOT assay (HLA-A*1101); assay type: cell-based, human; conditions: CTLs from HLA-A*1101-positive donors, DCs pulsed with 20 micro-g/ml peptide, day 21, versus unpulsed C1R-A11
Description: Monocyte-derived dendritic cells (DCs) were used as the antigen-presenting cell to induce a cytotoxic T lymphocyte (CTL) response against peptides presented on human leukocyte antigens (HLAs). As described in the other sections, DCs were generated in vitro (Nakahara S et al., Cancer Res 2003, 63(14): 4112-8). Specifically, peripheral-blood mononuclear cells isolated from healthy volunteers (HLA-A*1101-positive) with the Ficoll-Paque plus solution (Pharmacia) were separated by attaching to plastic tissue culture dishes (Becton Dickinson) and concentrated as a monocyte fraction. The monocyte-concentrated population was cultured in the presence of 1000 IU/ml granulocyte macrophage colony-stimulating factor (R&D System) and 1000 IU/ml interleukin (IL)-4 (R&D System) in an AIM-V medium (Invitrogen) containing 2% heat-inactivated autologous serum (AS). After seven days of culturing, the cytokine-induced DCs were pulsed with 20 micro-g/ml each of the synthesized peptides in an AIM-V medium at 37 degrees C. for three hours in the presence of 3 micro-g/ml beta 2-microglobulin.
Next, these peptide-pulsed DCs were inactivated by X-ray irradiation (20 Gy), and mixed in a 1:20 ratio with autologous CD8^+ T cells obtained by positive selection using the CD8 Positive Isolation Kit (Dynal). These culture products were seeded in a 48-well plate (Corning). […]

[2] = tested on: peptide-pulsed C1R-A11; experiment: IFN-gamma ELISA of CTL line and CTL clones (HLA-A*1101); assay type: cell-based, human
Experimental: (§1) CTLs were propagated in culture using methods similar to those disclosed by Riddell et al. (Walter E A et al., N Engl J Med 1995, 333(16): 1038-44; Riddell S R et al., Nat Med 1996, 2(2): 216-23). The CTLs were co-cultured in a total of 25 ml AIM-V medium containing 5% AS (AIM-V/5% AS) and 40 ng/ml anti-CD3 antibody with two types of Mitomycin C-treated human B lymphoblastoid cell lines (5×10^6 cells). One day after beginning of the culturing, 120 IU/ml IL-2 was added to the culture. On days 5, 8 and 11, a fresh AIM-V/5% AS medium containing 30 IU/ml IL-2 was added to the culture (Tanaka H et al., Br J Cancer 2001, 84(1): 94-9; Umano Y et al., Br J Cancer 2001, 84(8): 1052-7; Uchida N et al., Clin Cancer Res 2004, 10(24): 8577-86; Suda T et al., Cancer Sci 2006, 97(5): 411-9; Watanabe T et al., Cancer Sci 2005, 96(8): 498-506).
(§2) CTLs were seeded to make 1 or 10 cells/well in 96 round-bottomed microtiter plates (Nalge Nunc International). The CTLs were co-cultured with two types of Mitomycin C-treated human B lymphoblastoid cell lines at 1×10^4 cells in a total of 150 micro-l/well AIM-V/5% AS medium with 30 ng/ml anti-CD3 antibody and 125 IU/ml IL-2. Ten days later, IL-2 at 500 IU/ml in 50 micro-1 AIM-V/5% AS medium was added to the medium. […]

[3] = tested on: COS7 cells transfected with DEPDC1 and HLA-A*1101; experiment: Specific CTL activity against target cells expressing DEPDC1 and HLA-A*1101; assay type: cell-based, African green monkey; conditions: peptide-induced CTL line
Description: A cDNA encoding the open-reading frame of a target gene or HLA-A*1101 was amplified by PCR. The PCR-amplified product was cloned into an expression vector. Either or both of the target gene-expressing vector and the HLA-A*1101-expressing vector were transfected into COS7 cells, which is a cell line negative for the target gene and HLA, using Lipofectamine 2000 (Invitrogen) following the manufacturer's recommended protocol. Two days after transfection, the transfected cells were harvested using versene (Invitrogen), and used as the target cell for CTL activity assay (5×10^4 cells/well).
(§3) The CTL line induced with DEPDC1-A11-9-627 (SEQ ID NO: 1) was investigated for its ability to recognize target cells expressing DEPDC1 and the HLA-A*1101 molecule. COS7 cells transfected with both full-length DEPDC1 and the HLA-A*1101 gene were prepared as the target cell. COS7 cells transfected with either full-length DEPDC1 or HLA-A*1101 were prepared as the control.

[4] = tested on: COS7 cells transfected with DEPDC1 and HLA-A*0101; experiment: Specific CTL activity against target cells expressing DEPDC1 and HLA-A*0101; assay type: cell-based, African green monkey; conditions: peptide-induced CTL clone
Description: A cDNA encoding the open-reading frame of a target gene or HLA-A*0101 was amplified by PCR. The PCR-amplified product was cloned into an expression vector. Expression vectors were transfected using Lipofectamine 2000 (Invitrogen) following the manufacturer's recommended protocol. Two days after transfection, the transfected cells were harvested using versene (Invitrogen), and used as the stimulator cell for CTL activity assay (5×10^4 cells/well).
as §3, with “clone” for “line”, “DEPDC1-A01-11-44” for “DEPDC1-A11-9-627”, “108)” for “1)”, “HLA-A*0101” for “HLA-A*1101”

[5] = tested on: peptide-pulsed C1R-A01 cells; experiment: IFN-gamma ELISA of CTL line and CTL clone (HLA-A*0101); assay type: cell-based, human
Experimental: as §1, with “AS” for “AS (AIM-V/5% AS)”, “at 5×10^6 cells.” for “(5×10^6 cells).”
as §2, with “5% AS-containing AIM-V” for “AIM-V/5% AS”, “later, 50 micro-1 of” for “later,”, “5% AS-containing AIM-V” for “50 micro-1 AIM-V/5% AS”

[6] = tested on: peptide-pulsed C1R-A01 cells; experiment: In vitro CTL induction, IFN-gamma ELISPOT assay (HLA-A*0101); assay type: cell-based, human; conditions: CTLs from HLA-A*0101-positive donors, DCs pulsed with 20 micro-g/ml peptide, day 21, versus unpulsed C1R-A01
Description: Monocyte-derived dendritic cells (DCs) were used as the antigen-presenting cell to induce a cytotoxic T lymphocyte (CTL) response against peptides presented on human leukocyte antigens (HLAs). As described in the other sections, DCs were generated in vitro (Nakahara S et al., Cancer Res 2003, 63(14): 4112-8). Specifically, peripheral-blood mononuclear cells isolated from healthy volunteers (HLA-A*0101-positive) with the Ficoll-Paque plus solution (Pharmacia) were separated by attaching to plastic tissue culture dishes (Becton Dickinson) and concentrated as a monocyte fraction. The monocyte-concentrated population was cultured in the presence of 1000 IU/ml granulocyte macrophage colony-stimulating factor (R&D System) and 1000 IU/ml interleukin (IL)-4 (R&D System) in an AIM-V medium (Invitrogen) containing 2% heat-inactivated autologous serum (AS). After seven days of culturing, the cytokine-induced DCs were pulsed with 20 micro-g/ml each of the synthesized peptides in an AIM-V medium at 37 degrees C. for three hours in the presence of 3 micro-g/ml beta 2-microglobulin. Next, these peptide-pulsed DCs were inactivated by X-ray irradiation (20 Gy), and mixed in a 1:20 ratio with autologous CD8^+ T cells obtained by positive selection using the CD8 Positive Isolation Kit (Dynal). These culture products were seeded in a 48-well plate (Corning). Each well was made to contain 1.5×10^4 peptide-pulsed DCs, 3×10^5 CD8^+ T cells and 10 ng/ml IL-7 (R&D System) in 0.5 ml of the AIM-V/2% AS medium. Three days later, these culture products were added with a final concentration of 20 IU/ml IL-2 (CHIRON). On day 7 and day 14, T cells were further stimulated with peptide-pulsed autologous DCs. The DCs were prepared every time by the same method as above. On day 21, after the third peptide stimulation, CTL activities were examined against the peptide-pulsed C1R-A01 cells (Tanaka H et al., Br J Cancer 2001, 84(1): 94-9; Umano Y et al., Br J Cancer 2001, 84(8): 1052-7; Uchida N et al., Clin Cancer Res 2004, 10(24): 8577-86; Suda T et al., Cancer Sci 2006, 97(5): 411-9; Watanabe T et al., Cancer Sci 2005, 96(8): 498-506).
To examine specific CTL activity, an IFN-gamma ELISPOT assay and an IFN-gamma ELISA were performed. Specifically, peptide-pulsed C1R-A01 cells (1×10^4 cells/well) were prepared as the stimulator cell. The induced CTLs, i.e., CTL lines and CTL clones, were used as the responder cell. The IFN-gamma ELISPOT assay and IFN-gamma ELISA were performed according to the manufacturer's manual.

Sequence | peptide-specific CTL activity (IFN-gamma production, ELISPOT) [1] | IFN-gamma production of CTL clones (ELISA) ([2]; CTL clones by limiting dilution, peptide-pulsed C1R-A11 cells) | IFN-gamma production of the CTL line (ELISA) ([2]; CTL line from Well #4, peptide-pulsed versus unpulsed target cells) | CTL activity against control COS7 cells ([3]; COS7 transfected with either full-length DEPDC1 or HLA-A*1101) | CTL activity against COS7 cells expressing both DEPDC1 and HLA-A*1101 [3] | CTL activity against control COS7 cells ([4]; COS7 transfected with either full-length DEPDC1 or HLA-A*0101) | CTL activity against COS7 cells expressing both DEPDC1 and HLA-A*0101 [4] | IFN-gamma production of CTL clone (ELISA) ([5]; CTL clone by limiting dilution, peptide-pulsed C1R-A01 cells) | IFN-gamma production of the CTL line (ELISA) ([5]; CTL line from Well #8, peptide-pulsed versus unpulsed target cells) | peptide-specific CTL activity (IFN-gamma production, ELISPOT) [6]
MSQNVDMPK [SEQ ID NO: 1] | potent IFN-gamma production | Potent IFN-gamma production | potent IFN-gamma production | a significant specific CTL activity was not detected | potent CTL activity |  |  |  |  | 
FTAGEAVDWLY (a peptide derived from DEPDC1) [SEQ ID NO: 108] |  |  |  |  |  | a significant specific CTL activity was not detected | potent CTL activities | Potent IFN-gamma production | potent IFN-gamma production | potent IFN-gamma production

— patent publication US10676508B2, “DEPDC1-derived peptide and vaccine containing same” (OncoTherapy Science, Inc., priority 2015, dated 2020)
